What was measured:
[1] = system: late passage (P11) pancreatic-derived stromal cell line; experiment: Two high dose trichostatin A treatments (first 48 h), gene expression by RT-PCR (Example 9); assay type: cell-based, human; conditions: for HNF-3 beta gene expression / Insulin gene expression / Pdx-1 gene expression / glucagon gene expression: 5 μM 0-48 h + 96-120 h; for HNF-3 beta RT-PCR detection cycle / Pdx-1 RT-PCR detection cycle / glucagon RT-PCR detection cycle: 5.0 μM;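 for HNF-3 beta RT-PCR detection cycle: lower cycle number means higher gene expression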;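 for glucagon RT-PCR detection cycle: lower cycle number means higher gene expression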
Experimental: (§1) Several cell lines obtained from different amniotic fluid specimens (see Example 14) and pancreas donors (see Example 13) were tested with similar results. Two lines at similar passage number but derived from different amniotic fluid specimens are shown in Table VIII-A and Table VIII-B for this example. One of these cell lines was also used in examples 2 and 4 above. In addition, this example also contains comparison data in Table VIII-C and Table VIII-D for a single pancreatic-derived stromal line grown to early and late passage number.
(§2) Amniotic fluid derived cells or pancreatic-derived stromal cells were seeded into 24-well tissue culture plates at a density of 5000/cm^2 and cultured in AMNIOMAX (Invitrogen) or DMEM with 10% FBS respectively under standard cell culture conditions until confluent. After reaching confluence, amniotic fluid derived cells were treated at time 0 hours with a dose of 1.25 μM trichostatin A, and pancreatic-derived stromal cells were treated with a dose of 5.0 μM trichostatin A solubilized in DMSO and medium. At time 48 hours, cell cultures underwent a complete medium change to remove all traces of trichostatin A. At time 96 hours, cell cultures were re-fed with fresh medium and received a second dose of trichostatin A at the same concentration as used previously. At time 120 hours, cell cultures again underwent a complete medium change and were cultured for an additional 24 hours or […] total incubation time. Samples were taken for RT-PCR at the times indicated in Table IX-A to D. RNA samples were obtained daily from the start of the experiment. Culture medium was removed, and cells were washed with PBS then collected in RLT with β-mercaptoethanol (Qiagen). RNA was purified using the RNeasy Mini Kit (Qiagen) and RNA quantity and quality was determined using a spectrophotometer. cDNA was made using the iScript cDNA synthesis kit (BioRad). Human pancreas cDNA was included as a control. Results were normalized against GAPDH expression levels.
(§3) Gene expression levels of Sox17, HNF-3 beta, Pdx-1, insulin, and glucagon were analyzed in amniotic-derived cells, while expression levels of glucagon, insulin, HNF-3 beta, and Pdx-1 were analyzed in pancreas-derived cells. Samples of 20 ng cDNA was used in each Real-Time PCR reaction. RT-PCR was performed on the Applied Biosystems 7500, according to the methods described in Example 15. The data were analyzed using the accompanying software.
(§4) Real-time PCR amplifcation and quantitative analysis. Unless otherwise stated, all reagents were purchased from Applied Biosystems. Real-time PCR reactions were performed using the ABI PRISM™ 7500 Sequence Detection System. TAQMAN™ FAST UNIVERSAL PCR MASTER MIX™ (ABI, CA) was used with 20 ng of reverse transcribed RNA in a total reaction volume of 20 μl. Each cDNA sample was run in duplicate to allow correction of pipetting errors. Primers and FAM-labeled TAQMAN™ probes were used at concentrations of 200 nM. The level of expression for each target gene was normalized using the pre-developed Applied Biosystem's human glyceraldehyde-3-phosphate dehydrogenase (GAPDH) endogenous control kit. Primers and probes were designed using either ABI PRISM PRIMER EXPRESS™ software or a pre-developed ABI gene analysis kit. For each gene, either one of the primers or the probe were designed to be exon-boundary spanning. This eliminated the possibility of the primers/probe binding to any genomic DNA present. The primer and probe sets are listed as follows: Pdx-1 (Hs00426216), Insulin (Hs00355773), glucagon (Hs00174967), and FoxA2 (HNF 3-beta) (Hs00232764). The remaining primers were designed using the PRIMERS program (ABI, CA). After an initial 95° C. incubation for 20 sec, samples were cycled 40 times in two stages: a denaturation step at 95° C. for 3 sec, followed by an annealing/extension step at 60° C. for 30 sec. […]

[2] = system: early passage (P5) pancreatic-derived stromal cell line; experiment: as above; assay type: cell-based, human; conditions: for HNF-3 beta gene expression / Insulin gene expression / Pdx-1 gene expression / glucagon gene expression: 5 μM 0-48 h + 96-120 h;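 for HNF-3 beta RT-PCR detection cycle: lower cycle number means higher gene expression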;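 for glucagon RT-PCR detection cycle: lower cycle number means higher gene expression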
Experimental: as §1, §2, §3, §4

[3] = for 48 hours following addition
[4] = once trichostatin A was added again
[5] = 5.0 μM, following the second addition

`CC(/C=C/C(=O)NO)=C\[C@@H](C)C(=O)c1ccc(N(C)C)cc1` [trichostatin A] was tested, and the “HNF-3 beta gene expression” value ([1]; 24 hrs) was “+++ (detectable at less than 35 cycles by RT-PCR with SE less than 0.9)”, the Insulin gene expression ([1]; 24 hrs) was “nd (not detectable at >40 cycles by RT-PCR)” and the Pdx-1 gene expression ([1]; 24 hrs) was “+ (detectable between 35 and 40 cycles by RT-PCR)”. The glucagon gene expression ([1]; 24 hrs) was “+++ (detectable at less than 35 cycles by RT-PCR with SE less than 0.9)”, the “HNF-3 beta gene expression” value ([1]; 48 hrs) was “+++ (detectable at less than 35 cycles by RT-PCR with SE less than 0.9)” and the Insulin gene expression ([1]; 48 hrs) was “nd (not detectable at >40 cycles by RT-PCR)”. The Pdx-1 gene expression ([1]; 48 hrs) was “+++ (detectable at less than 35 cycles by RT-PCR with SE less than 0.9)”, the glucagon gene expression ([1]; 48 hrs) was “+++ (detectable at less than 35 cycles by RT-PCR with SE less than 0.9)” and the “HNF-3 beta gene expression” value ([1]; 72 hrs) was “nd (not detectable at >40 cycles by RT-PCR)”. The Insulin gene expression ([1]; 72 hrs) was “nd (not detectable at >40 cycles by RT-PCR)”, the Pdx-1 gene expression ([1]; 72 hrs) was “nd (not detectable at >40 cycles by RT-PCR)” and the glucagon gene expression ([1]; 72 hrs) was “+ (detectable between 35 and 40 cycles by RT-PCR)”. The “HNF-3 beta gene expression” value ([1]; 96 hrs) was “nd (not detectable at >40 cycles by RT-PCR)”, the Insulin gene expression ([1]; 96 hrs) was “nd (not detectable at >40 cycles by RT-PCR)” and the Pdx-1 gene expression ([1]; 96 hrs) was “nd (not detectable at >40 cycles by RT-PCR)”. The glucagon gene expression ([1]; 96 hrs) was “nd (not detectable at >40 cycles by RT-PCR)”, the “HNF-3 beta gene expression” value ([1]; 120 hrs) was “+++ (detectable at less than 35 cycles by RT-PCR with SE less than 0.9)” and the Insulin gene expression ([1]; 120 hrs) was “+ (detectable between 35 and 40 cycles by RT-PCR)”. For the same compound, the Pdx-1 gene expression ([1]; 120 hrs) was “+++ (detectable at less than 35 cycles by RT-PCR with SE less than 0.9)”, the glucagon gene expression ([1]; 120 hrs) was “+ (detectable between 35 and 40 cycles by RT-PCR)” and the “HNF-3 beta RT-PCR detection cycle” value ([1]; after addition) was 32 cycles. The “Pdx-1 RT-PCR detection cycle” value ([1]; after addition) was 31 cycles, the “glucagon RT-PCR detection cycle” value ([1]; after addition (for 48 hours)) was 33 cycles and the “glucagon RT-PCR detection cycle” value ([1]; following the removal) was 37 cycles. For the same compound, the “HNF-3 beta RT-PCR detection cycle” value [1, 3] was 33 cycles, the “Pdx-1 RT-PCR detection cycle” value [1, 3] was 32 cycles and the “HNF-3 beta RT-PCR detection cycle” value [1, 4] was 34 cycles. The “Pdx-1 RT-PCR detection cycle” value [1, 4] was 33 cycles, the “glucagon RT-PCR detection cycle” value ([1]; second treatment) was 35 cycles and the “HNF-3 beta gene expression” value ([2]; 24 hrs) was “+++ (detectable at less than 35 cycles by RT-PCR with SE less than 0.9)”. For the same compound, the Insulin gene expression ([2]; 24 hrs) was “nd (not detectable at >40 cycles by RT-PCR)”, the Pdx-1 gene expression ([2]; 24 hrs) was “+++ (detectable at less than 35 cycles by RT-PCR with SE less than 0.9)” and the glucagon gene expression ([2]; 24 hrs) was “+++ (detectable at less than 35 cycles by RT-PCR with SE less than 0.9)”. The “HNF-3 beta gene expression” value ([2]; 48 hrs) was “+++ (detectable at less than 35 cycles by RT-PCR with SE less than 0.9)”, the Insulin gene expression ([2]; 48 hrs) was “nd (not detectable at >40 cycles by RT-PCR)” and the Pdx-1 gene expression ([2]; 48 hrs) was “+++ (detectable at less than 35 cycles by RT-PCR with SE less than 0.9)”. The glucagon gene expression ([2]; 48 hrs) was “+++ (detectable at less than 35 cycles by RT-PCR with SE less than 0.9)”, the “HNF-3 beta gene expression” value ([2]; 72 hrs) was “nd (not detectable at >40 cycles by RT-PCR)” and the Insulin gene expression ([2]; 72 hrs) was “+++ (detectable at less than 35 cycles by RT-PCR with SE less than 0.9)”. For the same compound, the Pdx-1 gene expression ([2]; 72 hrs) was “nd (not detectable at >40 cycles by RT-PCR)”, the glucagon gene expression ([2]; 72 hrs) was “+ (detectable between 35 and 40 cycles by RT-PCR)” and the “HNF-3 beta gene expression” value ([2]; 96 hrs) was “nd (not detectable at >40 cycles by RT-PCR)”. The Insulin gene expression ([2]; 96 hrs) was “nd (not detectable at >40 cycles by RT-PCR)”, the Pdx-1 gene expression ([2]; 96 hrs) was “nd (not detectable at >40 cycles by RT-PCR)” and the glucagon gene expression ([2]; 96 hrs) was “+ (detectable between 35 and 40 cycles by RT-PCR)”. The “HNF-3 beta gene expression” value ([2]; 120 hrs) was “+++ (detectable at less than 35 cycles by RT-PCR with SE less than 0.9)”, the Insulin gene expression ([2]; 120 hrs) was “nd (not detectable at >40 cycles by RT-PCR)” and the Pdx-1 gene expression ([2]; 120 hrs) was “+++ (detectable at less than 35 cycles by RT-PCR with SE less than 0.9)”. The glucagon gene expression ([2]; 120 hrs) was “+ (detectable between 35 and 40 cycles by RT-PCR)”, the “Pdx-1 RT-PCR detection cycle” value ([2]; 5.0 μM, 48 hours) was 32 cycles and the “glucagon RT-PCR detection cycle” value ([2]; 5.0 μM, 48 hours) was 33 cycles. The “glucagon RT-PCR detection cycle” value ([2]; 5.0 μM, after trichostatin A was removed) was 38 cycles, the “Insulin RT-PCR detection cycle” value ([2]; 5.0 μM, following the medium change) was 33 cycles and the “Pdx-1 RT-PCR detection cycle” value [2, 5] was 32 cycles. The “glucagon RT-PCR detection cycle” value [2, 5] was 37 cycles, the “glucagon RT-PCR detection cycle” value ([2]; 5.0 μM, following treatment) was 35 cycles and the “HNF-3 beta RT-PCR detection cycle” value ([2]; 5.0 μM, following treatment until removal) was 34 cycles. For the same compound, the “HNF-3 beta RT-PCR detection cycle” value ([2]; 5.0 μM, when trichostatin A was added again) was 33 cycles.

Reference: US20080063628A1, “METHODS TO PROMOTE CELL DIFFERENTIATION” (priority 2006, published 2008)
